Consider eight molecules from paper PMC11679574, “Intestinal Cells-on-Chip for Permeability Studies” (Micromachines, 2024).

Series [1] deals with glucuronosyltransferases (UGTs). Nature of the series: Phase II metabolism of 7-hydroxycoumarin in enteroid monolayers, static Transwell. The series is classed as in vitro ADME, human. To be noted: enteroids, 12 µM. As to the method: (§1) For specific inhibition, 5 µM elacridar and 5 µM ketoconazole (both Sigma-Aldrich, Zwijndrecht, The Netherlands) were used. The drug cocktail was added to the apical medium reservoirs of chip experiments (flow) and the apical insert of static Transwell inserts. Inhibitors were added to both apical dose solution and basolateral transport buffer. During experiments, samples were collected at different timepoints from both apical and basolateral medium reservoirs, mixed with equal volume of ultrapure MeOH and stored at −20 °C until analysis by LC-MS/MS.
(§2) For quantification, a standard of parental compounds and metabolites was prepared in the same medium as samples. Metabolites included were 1’-hydroxymidazolam (Sigma-Aldrich) and 7-hydroxycoumarin glucuronide (LGC Standards, OLY, UK). Both standard and samples were centrifuged for 10 min at 1500× g to precipitate protein, and subsequently, 1 µL was injected. […] A limit of quantification (LOQ) was determined for each compound based on the standard curve and a limit of detection (LOD) was determined based on a noise signal. For each experiment, corresponding dose and blanks were included in measurements. Recovery was calculated as the percentage of original dose added to the system.
(§3) All static control experiments were performed in cell monolayers cultured on transparent Transwell inserts (Corning, Life Sciences BV, Amsterdam, The Netherlands). […]

Series [2] shares this test system. Nature of the series: Phase II metabolism of 7-hydroxycoumarin in enteroid monolayers, chip system. The class given is in vitro ADME, human. The conditions noted are these: enteroids, 12 µM. How it is done: To add the culture disc with cells into the system, it was transferred to a biosafety cabinet, the chips were opened from the top and the discs were added to the chip, after which they were closed using a twisting cap mechanism. Sufficient medium was added to the chip to ensure no air bubbles were trapped during this procedure. Flow speed was adjusted to 17 µL/min and the system was placed back into a cell culture incubator (37 °C, 5% CO2). After a short period of equilibration, transport medium (with/without compound of interest) was added to apical and basolateral reservoirs, with the basolateral medium containing 4% BSA. The medium volumes in the reservoirs depended on the duration of the experiment and the sample volumes required but were between 5 and 6.5 mL. To completely replace the medium inside the tubing and chip with fresh transport medium, the system was run without medium recirculation for 30 min prior to the start of measurements. Details on the permeability measurements are described below. […]
(§4) For quantification, a standard of parental compounds and metabolites was prepared in the same medium as samples. […] A limit of quantification (LOQ) was determined for each compound based on the standard curve and a limit of detection (LOD) was determined based on a noise signal. […] Recovery was calculated as the percentage of original dose added to the system.

For series [3] the following is noted: no reference given; cited from earlier work.
The nature of series [4]: Permeability in cell-on-chip system under laminar flow, enteroid monolayers. To be noted: human. As to the method: (§5) To add the culture disc with cells into the system, it was transferred to a biosafety cabinet, the chips were opened from the top and the discs were added to the chip, after which they were closed using a twisting cap mechanism. Sufficient medium was added to the chip to ensure no air bubbles were trapped during this procedure. Flow speed was adjusted to 17 µL/min and the system was placed back into a cell culture incubator (37 °C, 5% CO2). After a short period of equilibration, transport medium (with/without compound of interest) was added to apical and basolateral reservoirs, with the basolateral medium containing 4% BSA. The medium volumes in the reservoirs depended on the duration of the experiment and the sample volumes required but were between 5 and 6.5 mL. To completely replace the medium inside the tubing and chip with fresh transport medium, the system was run without medium recirculation for 30 min prior to the start of measurements. Details on the permeability measurements are described below.
(§6) Leakage to the basolateral medium was determined using the BioTek Synergy H1 microplate reader (BioSPX, Abcoude, The Netherlands). […] Apparent permeability values (Papp) were calculated according to Equation (1):(1) Papp=dQ/dt×(1/A×C0) in which dQ/dt is the amount of drug transported over the barrier (ng/sec), A is the exposed area of the cell monolayer (cm^2) and C0 is the initial dose concentration of the compound (ng/mL). All measurements were performed under flow (17 µL/min), and the chip system was inside a cell culture incubator (37 °C, 5%CO2) during the entire experiment, as described in Section 2.6.
(§7) Apical and basolateral medium reservoirs were sampled at t = 0, 1, 2 and 4 h. All measurements were performed under flow (17 µL/min), and the chip system was inside a cell culture incubator (37 °C, 5% CO2) during the entire experiment, as described in Section 2.6.
as §1, §4

A short description of the next series: in vitro. The conditions noted are these: human. How it is done:
as §6, §7, §1, §2
(§8) All static control experiments were performed in cell monolayers cultured on transparent Transwell inserts (Corning, Life Sciences BV, Amsterdam, The Netherlands). Procedures for seeding and culturing were exactly the same as previously reported. […] The only difference was in the volume of apical (100 µL) and basolateral (600 µL) compartment, which was accounted for in Papp calculations. All measurements were performed inside a cell culture incubator (37 °C, 5% CO2).

For the next series, the target named is CYP3A4 (Homo sapiens, UniProt P08684). Nature of the series: Phase I metabolism of midazolam in enteroid monolayers, static Transwell. To be noted: enteroids, static Transwell cultures. How it is done:
as §1, §2, §3

The nature of series [5]: Compound recovery, cell-on-chip system. The class given is in vitro ADME. To be noted: human, read-out: Recovery, percentage of original dose.
In series [6] the test system is enteroid monolayers. Nature of the series: Permeability in cell-on-chip system under laminar flow, enteroid monolayers. How it is done:
as §5, §6, §7, §1, §4

For series [7], the system named is enteroid monolayers. Nature of the series: in vitro. As to the method:
as §6, §7, §1, §2, §8

Another series concerns Caco-2 monolayers. Nature of the series: Permeability in static Transwell inserts, Caco-2 monolayers. The class given is in vitro ADME, human. To be noted: static culture, intact Caco-2 monolayer. For orientation: Passage across Caco-2 layers is used to estimate intestinal permeability.

Read-outs that look alike come from different tables or passages of the source.

Sequence of CYP3A4 (P08684 whole entry): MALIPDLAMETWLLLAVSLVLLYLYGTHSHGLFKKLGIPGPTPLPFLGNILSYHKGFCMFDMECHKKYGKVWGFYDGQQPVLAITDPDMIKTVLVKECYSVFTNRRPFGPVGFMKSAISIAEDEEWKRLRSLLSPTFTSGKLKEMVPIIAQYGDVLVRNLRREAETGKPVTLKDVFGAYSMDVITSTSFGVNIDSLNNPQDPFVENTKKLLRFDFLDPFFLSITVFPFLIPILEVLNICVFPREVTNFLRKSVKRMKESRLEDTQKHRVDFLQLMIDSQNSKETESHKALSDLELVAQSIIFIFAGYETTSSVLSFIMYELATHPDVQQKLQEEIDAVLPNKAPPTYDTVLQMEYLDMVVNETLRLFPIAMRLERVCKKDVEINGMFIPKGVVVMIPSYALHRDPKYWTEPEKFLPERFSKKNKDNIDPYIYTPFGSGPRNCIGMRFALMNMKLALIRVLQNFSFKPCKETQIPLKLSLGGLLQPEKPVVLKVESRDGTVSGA
Protocol for Caco-2 monolayers: Leakage to the basolateral medium was determined using the BioTek Synergy H1 microplate reader (BioSPX, Abcoude, The Netherlands). FD4 was measured with an excitation/emission wavelength of 485 nm and 528 nm, and CB was measured at 365 nm and 412 nm, respectively. Apparent permeability values (Papp) were calculated according to Equation (1):(1) Papp=dQ/dt×(1/A×C0) in which dQ/dt is the amount of drug transported over the barrier (ng/sec), A is the exposed area of the cell monolayer (cm^2) and C0 is the initial dose concentration of the compound (ng/mL).
All static control experiments were performed in cell monolayers cultured on transparent Transwell inserts (Corning, Life Sciences BV, Amsterdam, The Netherlands). […] The only difference was in the volume of apical (100 µL) and basolateral (600 µL) compartment, which was accounted for in Papp calculations. All measurements were performed inside a cell culture incubator (37 °C, 5% CO2).

With `O=c1ccc2ccc(O)cc2o1` [7OH-coumarin, 7-hydroxycoumarin], the 7-hydroxycoumarin glucuronide formation entry in [1] and in [2] was “confirm UGT activity” in each case.

Take `Cc1cc(=O)n(-c2ccccc2)n1C` [Antipyrine, antipyrine]: the “fraction absorbed (Fa)” value in series [3] is on record as 100%.

`CC(C)NCC(O)COc1ccc(CC(N)=O)cc1` (stereo not drawn) [Atenolol, atenolol]: in [3], the “fraction absorbed (Fa)” value was 50%.

On to `CN(C)C(=N)N=C(N)N` [Metformin, metformin], for which the Papp A→B (commonly how fast a substance crosses the layer from the apical side) worked out at 4.6 ×10⁻⁶ cm/s in series [4] and 1.44 ×10⁻⁶ cm/s in “in vitro”.

Consider `Cc1ncc2n1-c1ccc(Cl)cc1C(c1ccccc1F)=NC2` [Midazolam, midazolam], for which the OH-midazolam formation entry at CYP3A4 (in the presence of ketoconazole 5 µM) was “absent”; on CYP3A4 (midazolam 10 µM), “increase in OH-midazolam over time”. The recovery at 10 µM is 41% in series [5] (chips containing translucent membranes) and 11% in [5] (chips with transparent membranes).

For `CC(C)c1nc(N(C)S(C)(=O)=O)nc(-c2ccc(F)cc2)c1/C=C/[C@@H](O)C[C@@H](O)CC(=O)O` [Rosuvastatin, rosuvastatin], the “Papp (in words)” value was “low” with enteroid monolayers [6] (enteroids, chip experiments, drug cocktail, 10 µM) and “low” with enteroid monolayers [7]. For the same molecule, the Papp A→B in [4] was found to be 1.11 ×10⁻⁶ cm/s; in the series “in vitro”, 0.7 ×10⁻⁶ cm/s.

For the molecule Cascade Blue [CB], the “Overall permeation compared to FD4” value in the series on enteroid monolayers [6] (chip system, overall over cell types and membranes) is on record as “approximately 2 fold”. For the same molecule, the Papp with enteroid monolayers [7] (static culture, intact enteroid monolayer) is 0.08 ·10^−6 cm/s; with Caco-2 monolayers, 0.5 ·10^−6 cm/s.

Dextran-FITC 4 kDa [FD4]: the “Papp A to B, Static” value in the series on enteroid monolayers [7] worked out at 0.01 ×10⁻⁶ cm/s.
